Data on 13 molecules can be found in patent publication US20230322723A1, “COMPOUNDS FOR SUPPRESSING EGFR MUTANT CANCER AND PHARMACEUTICAL USE THEREOF” (J2H BIOTECH INC., priority 2020, published 2023).

The test system of test [1] is EGFR^del19+T790M+C797S. Kind of test: EGFR protein degradation test (Western blot) in Ba/F3 cells expressing mutant EGFR del19+T790M+C797S (DTC). Type of test: cell-based. Particulars: compounds at 0.1 μM and 1 μM, 24 hours, Western blot with EGFR antibody. The protocol: (§1) The ability of the compounds of the present invention to degrade the mutant EGFR protein was confirmed in Ba/F3 cells expressing normal EGFR, mutant EGFR^del19+T790M+C797S or mutant EGFR^L858R+T790M+C797S. A Western blot test using the EGFR antibody was performed.
(§2) Specifically, Ba/F3 cells expressing EGFR were cultured in RPMI 1640 (Gibco, NY, USA) containing 10% fetal bovine serum (FBS, Gibco, NY, USA). Cells expressing normal EGFR, mutant EGFR^del19+T790M+C797S or mutant EGFR^L858R+T790M+C797S were treated with the compounds of the present invention at concentrations of 0.1 μM and 1 μM, respectively, for 24 hours. After that, it was washed twice with phosphate buffered saline (PBS) and SDS-PAGE was performed with 30 μg of cell lysate. After the protein separated on the gel was transferred to a nitrocellulose membrane, the expression level of the EGFR protein was confirmed using an EGFR antibody (Santa Cruz biotechnology, Santacruz, CA, USA). EGFR bands separated by Western blotting were quantitatively analyzed with Fluo-S MultiImager (Bio-Rad, Hercules, CA, USA).
For orientation: In western blotting, separated proteins are transferred to a membrane and probed.

For test [2], the target named is T1, EGFR^L858R+T790M+C797S (Homo sapiens, UniProt P00533, C797S/L858R/T790M).
T1 construct: expressed in transfected cells; host or cells: Ba/F3
Briefly: EGFR protein degradation test (Western blot) in Ba/F3 cells expressing mutant EGFR L858R+T790M+C797S (LTC). Type of test: cell-based. Particulars: compounds at 0.1 μM and 1 μM, 24 hours, Western blot with EGFR antibody. The protocol: as §1, §2

Structures are written as SMILES.

T1 sequence (P00533 25-1210 T790M/C797S/L858R): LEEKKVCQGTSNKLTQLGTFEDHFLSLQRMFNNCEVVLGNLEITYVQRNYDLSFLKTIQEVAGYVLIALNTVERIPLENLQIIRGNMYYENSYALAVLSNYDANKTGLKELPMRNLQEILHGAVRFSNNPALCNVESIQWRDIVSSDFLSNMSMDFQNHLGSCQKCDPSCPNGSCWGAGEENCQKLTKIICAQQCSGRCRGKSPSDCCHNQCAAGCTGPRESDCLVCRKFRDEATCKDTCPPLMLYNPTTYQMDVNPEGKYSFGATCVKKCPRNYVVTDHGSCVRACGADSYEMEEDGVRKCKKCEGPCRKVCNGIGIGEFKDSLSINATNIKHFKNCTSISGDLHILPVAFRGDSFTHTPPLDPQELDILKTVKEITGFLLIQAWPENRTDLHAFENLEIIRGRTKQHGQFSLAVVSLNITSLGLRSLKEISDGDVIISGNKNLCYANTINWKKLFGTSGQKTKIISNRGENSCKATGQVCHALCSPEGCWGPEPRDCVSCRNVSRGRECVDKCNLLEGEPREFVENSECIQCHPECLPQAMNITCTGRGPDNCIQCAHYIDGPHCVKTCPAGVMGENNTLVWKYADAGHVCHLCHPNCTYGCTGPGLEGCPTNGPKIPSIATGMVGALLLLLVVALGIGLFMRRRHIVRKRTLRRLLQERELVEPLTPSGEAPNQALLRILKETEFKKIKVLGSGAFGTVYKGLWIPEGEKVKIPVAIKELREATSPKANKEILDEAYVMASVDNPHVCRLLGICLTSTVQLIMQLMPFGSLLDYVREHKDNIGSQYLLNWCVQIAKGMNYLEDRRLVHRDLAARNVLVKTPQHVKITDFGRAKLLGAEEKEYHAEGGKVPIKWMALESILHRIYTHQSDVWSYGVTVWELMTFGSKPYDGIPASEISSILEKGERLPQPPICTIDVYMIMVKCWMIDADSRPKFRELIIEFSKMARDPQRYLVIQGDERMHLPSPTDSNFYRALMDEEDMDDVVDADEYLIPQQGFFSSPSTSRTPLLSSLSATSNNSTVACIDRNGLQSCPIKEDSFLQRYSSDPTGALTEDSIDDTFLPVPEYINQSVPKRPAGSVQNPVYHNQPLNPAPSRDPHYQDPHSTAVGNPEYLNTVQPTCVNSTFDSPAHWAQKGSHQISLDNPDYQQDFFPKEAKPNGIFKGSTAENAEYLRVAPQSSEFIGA

With `COc1cc(N2CCN(CCOCCOCC(=O)Nc3cccc4c3C(=O)N(C3CCC(=O)NC3=O)C4=O)CC2)ccc1Nc1ncc(Cl)c(Nc2ccccc2N(C)S(C)(=O)=O)n1` (centres unmarked) [Compound 8, 2-(2-(2-(4-(4-((5-chloro-4-((2-(N-methylmethylsulfonamido)phenyl)amino)pyrimidin-2-yl)amino)-3-methoxyphenyl)piperazin-1-yl)ethoxy)ethoxy)-N-(2-(2,6-dioxopiperidin-3-yl)-1,3-dioxoisoindolin-4-yl)acetamide], the “DTC (EGFR^del19+T790M+C797S) protein degradation” value (from here on “DTC”) in test [1] is recorded as “− (Protein degradation < 20%)”. Also, the “LTC (EGFR^L858R+T790M+C797S) protein degradation” value (“LTC” below) in test [2] is “− (Protein degradation < 20%)”.
`COc1cc(N2CCC(N3CCN(CCOCCOCC(=O)Nc4cccc5c4C(=O)N(C4CCC(=O)NC4=O)C5=O)CC3)CC2)ccc1Nc1ncc(Cl)c(Nc2ccccc2N(C)S(C)(=O)=O)n1` (centres unmarked) [Compound 9, 2-(2-(2-(4-(1-(4-((5-chloro-4-((2-(N-methylmethylsulfonamido)phenyl)amino)pyrimidin-2-yl)amino)-3-methoxyphenyl)piperidin-4-yl)piperazin-1-yl)ethoxy)ethoxy)-N-(2-(2,6-dioxopiperidin-3-yl)-1,3-dioxoisoindolin-4-yl)acetamide]: in test [1], the “DTC” value was “− (Protein degradation < 20%)”. Besides, the “LTC” value in test [2] was “− (Protein degradation < 20%)”.
Turning to `COc1cc(N2CCN(CCOCCOCC(=O)N[C@H](C(=O)N3C[C@H](O)C[C@@H]3C(=O)NCc3ccc(-c4scnc4C)cc3)C(C)(C)C)CC2)ccc1Nc1ncc(Cl)c(Nc2ccccc2N(C)S(C)(=O)=O)n1` [Compound 10, (2R,4R)-1-((S)-2-(2-(2-(2-(4-(4-((5-chloro-4-((2-(N-methylmethylsulfonamido)phenyl)amino)pyrimidin-2-yl)amino)-3-methoxyphenyl)piperazin-1-yl)ethoxy)ethoxy)acetamido)-3,3-dimethylbutanoyl)-4-hydroxy-N-(4-(4-methylthiazol-5-yl)benzyl)pyrrolidin-2-carboxamide], in test [1], the “DTC” value is reported as “− (Protein degradation < 20%)”. The “LTC” value in test [2] is “− (Protein degradation < 20%)”.
Consider `COc1cc(N2CCN(CCOCCOc3cccc4c3C(=O)N(C3CCC(=O)NC3=O)C4=O)CC2)ccc1Nc1ncc(Cl)c(Nc2ccccc2N(C)S(C)(=O)=O)n1` (centres unmarked) [Compound 12, N-(2-((5-chloro-2-((4-(4-(2-(2-((2-(2,6-dioxopiperidin-3-yl)-1,3-dioxoisoindolin-4-yl)oxy)ethoxy)ethyl)piperazin-1-yl)-2-methoxyphenyl)amino)pyrimidin-4-yl)amino)phenyl)N-methylmethanesulfonamide], for which the “DTC” value in test [1] is given as “− (Protein degradation < 20%)”. The “LTC” value in test [2] is “− (Protein degradation < 20%)”.
As for `COc1cc(N2CCC(N3CCN(CCOCCOc4cccc5c4C(=O)N(C4CCC(=O)NC4=O)C5=O)CC3)CC2)ccc1Nc1ncc(Cl)c(Nc2ccccc2N(C)S(C)(=O)=O)n1` (centres unmarked) [Compound 13, N-(2-((5-chloro-2-((4-(4-(4-(2-(2-((2-(2,6-dioxopiperidin-3-yl)-1,3-dioxoisoindolin-4-yl)oxy)ethoxy)ethyl)piperazin-1-yl)piperidin-1-yl)-2-methoxyphenyl)amino)pyrimidin-4-yl)amino)phenyl)N-methylmethanesulfonamide], in test [1], the “DTC” value was “+ (Protein degradation 20~80%)”. The “LTC” value in test [2] was “+ (Protein degradation 20~80%)”.
Turning to `COc1cc(N2CCN(CCCCOc3cccc4c3C(=O)N(C3CCC(=O)NC3=O)C4=O)CC2)ccc1Nc1ncc(Cl)c(Nc2ccccc2N(C)S(C)(=O)=O)n1` (centres unmarked) [Compound 14, N-(2-((5-chloro-2-((4-(4-(4-((2-(2,6-dioxopiperidin-3-yl)-1,3-dioxoisoindolin-4-yl)oxy)butyl)piperazin-1-yl)-2-methoxyphenyl)amino)pyrimidin-4-yl)amino)phenyl)-N-methylmethanesulfonamide], the “DTC” value in test [1] is “− (Protein degradation < 20%)”. In addition, the “LTC” value in test [2] was “+ (Protein degradation 20~80%)”.
In the same order, the values of `COc1cc(N2CCC(N3CCN(CCCCOc4cccc5c4C(=O)N(C4CCC(=O)NC4=O)C5=O)CC3)CC2)ccc1Nc1ncc(Cl)c(Nc2ccccc2N(C)S(C)(=O)=O)n1` (centres unmarked) [Compound 15, N-(2-((5-chloro-2-((4-(4-(4-(4-((2-(2,6-dioxopiperidin-3-yl)-1,3-dioxoisoindolin-4-yl)oxy)butyl)piperazin-1-yl)piperidin-1-yl)-2-methoxyphenyl)amino)pyrimidin-4-yl)amino)phenyl)-N-methylmethanesulfonamide] are “+ (Protein degradation 20~80%)” and “+ (Protein degradation 20~80%)”.
For `COc1cc(N2CCN(CCOCCNc3cccc4c3C(=O)N(C3CCC(=O)NC3=O)C4=O)CC2)ccc1Nc1ncc(Cl)c(Nc2ccccc2N(C)S(C)(=O)=O)n1` (centres unmarked) [Compound 16], the “DTC” value in test [1] is given as “− (Protein degradation < 20%)”. Besides, the “LTC” value in test [2] was “+ (Protein degradation 20~80%)”.
Regarding `Cc1ncsc1-c1ccc(CNC(=O)[C@H]2C[C@@H](O)CN2C(=O)[C@@H](NC(=O)CCCCN2CCN(c3ccc(Nc4ncc(Cl)c(Nc5ccccc5N(C)S(C)(=O)=O)n4)cc3F)CC2)C(C)(C)C)cc1` [Compound 17, (2R,4R)-1-((S)-2-(5-(4-(4-((5-chloro-4-((2-(N-methylmethylsulfonamido)phenyl)amino)pyrimidin-2-yl)amino)-2-fluorophenyl)piperazin-1-yl)pentanamido)3,3-dimethylbutanoyl)4-hydroxy-N-(4-(4-methylthiazol-5-yl)benzyl)pyrrolidin-2-carboxamide], the “DTC” value in test [1] is on record as “+ (Protein degradation 20~80%)”. Also, the “LTC” value in test [2] is reported as “− (Protein degradation < 20%)”.
Take `Cc1ncsc1-c1ccc(CNC(=O)[C@H]2C[C@@H](O)CN2C(=O)[C@@H](NC(=O)CCCCN2CCN(C3CCN(c4ccc(Nc5ncc(Cl)c(Nc6ccccc6N(C)S(C)(=O)=O)n5)cc4F)CC3)CC2)C(C)(C)C)cc1` [Compound 18, (2R,4R)-1-((S)-2-(5-(4-(1-(4-((5-chloro-4-((2-(N-methylmethylsulfonamido)phenyl)amino)pyrimidin-2-yl)amino)-2-fluorophenyl)piperidin-4-yl)piperazin-1-yl)pentanamido)-3,3-dimethylbutanoyl)-4-hydroxy-N-(4-(4-methylthiazol-5-yl)benzyl)pyrrolidin-2-carboxamide]: the “DTC” value in test [1] is “− (Protein degradation < 20%)”. In addition, the “LTC” value in test [2] was “− (Protein degradation < 20%)”.
Consider `Cc1ncsc1-c1ccc(CNC(=O)[C@H]2C[C@@H](O)CN2C(=O)[C@@H](NC(=O)CN2CCN(C3CCN(c4ccc(Nc5ncc(Cl)c(Nc6ccccc6N(C)S(C)(=O)=O)n5)cc4F)CC3)CC2)C(C)(C)C)cc1` [Compound 19, (2R,4R)-1-((S)-2-(2-(4-(1-(4-((5-chloro-4-((2-(N-methylmethylsulfonamido)phenyl)amino)pyrimidin-2-yl)amino)-2-fluorophenyl)piperidin-4-yl)piperazin-1-yl)acetamido)-3,3-dimethylbutanoyl)-4-hydroxy-N-(4-(4-methylthiazol-5-yl)benzyl)pyrrolidin-2-carboxamide], for which the “DTC” value in test [1] was “++ (Protein degradation > 80%)”. Besides, the “LTC” value in test [2] is given as “+ (Protein degradation 20~80%)”.
As for `COc1cc(N2CCC(N3CCN(CC(=O)Nc4cccc5c4C(=O)N(C4CCC(=O)NC4=O)C5=O)CC3)CC2)ccc1Nc1ncc(Cl)c(Nc2ccccc2N(C)S(C)(=O)=O)n1` (centres unmarked) [Compound 21, 2-(4-(1-(4-((5-chloro-4-((2-(N-methylmethylsulfonamido)phenyl)amino)pyrimidin-2-yl)amino)-3-methoxyphenyl)piperidin-4-yl)piperazin-1-yl)-N-(2-(2,6-dioxopiperidin-3-yl)-1,3-dioxoisoindolin-4-yl)acetamide], the “DTC” value in test [1] is “− (Protein degradation < 20%)”. The “LTC” value in test [2] was “− (Protein degradation < 20%)”.
Take `COc1cc(N2CCC(CN3CCN(CC(=O)Nc4cccc5c4C(=O)N(C4CCC(=O)NC4=O)C5=O)CC3)CC2)ccc1Nc1ncc(Cl)c(Nc2ccccc2N(C)S(C)(=O)=O)n1` (centres unmarked) [Compound 23, 2-(4-((1-(4-((5-chloro-4-((2-(N-methylmethylsulfonamido)phenyl)amino)pyrimidin-2-yl)amino)-3-methoxyphenyl)piperidin-4-yl)methyl)piperazin-1-yl)-N-(2-(2,6-dioxopiperidin-3-yl)-1,3-dioxoisoindolin-4-yl)acetamide]: the “DTC” value in test [1] was “− (Protein degradation < 20%)”. Moreover, the “LTC” value in test [2] is on record as “− (Protein degradation < 20%)”.
